One assay deals with T1, KRAS G12C 1-169, his-tagged protein, GDP-loaded (Homo sapiens, UniProt P01116, G12C).
T1 construct: KRAS G12C 1-169, his-tagged protein, GDP-loaded
Nature of the assay: Biochemical assay: covalent modification of KRAS G12C measured by mass spectrometry (RapidFire/TOF or Q-Exactive). It counts as binding. Particulars: tested at 32 μM. How it is done:
Test compounds were prepared as 10 mM stock solutions in DMSO (Fisher cat. #BP-231-100). KRAS G12C 1-169, his-tagged protein, GDP-loaded is diluted to 2 μM or 0.5 μM in buffer (20 mM Hepes, 150 mM NaCl, 1 mM MgCl2). Compounds were tested for activity as follows:
Compounds were diluted to 50× final test concentration in DMSO in 96-well storage plates. Compound stock solutions were vortexed before use and observed cwerefully for any sign of precipitation. Dilutions were as follow: • For 32 μM final compound concentration, compounds were diluted to 1600 μM (3 μL 10 mM compound stock +15.75 μL DMSO and mixed well by pipetting. • For 8 μM final compound concentration, compounds were diluted to 400 μM (2 μL 10 mM compound stock +48 μL DMSO) and mixed well by pipetting. 49 μL of the stock protein solution was added to each well of a 96-well PCR plate (Fisher cat#1423027). 1 μl of the diluted 50× compounds were added to appropriate wells in the PCR plate using 12-channel pipettor. Reactions were mixed carefully and thoroughly by pipetting up/down with a 200 μL multi-channel pipettor. The plate was sealed well with aluminum plate seal, and protein and compound were allowed to react for a desired amount of time. 5 μL of 2% formic acid (Fisher cat#A117) in de-ionized H2O was then added to each well followed by mixing with a pipette to quench the reaction. The plate was then resealed with aluminum seal and stored frozen on dry ice until analyzed as described below.
The above described assays were analyzed by mass spectrometry according to one of the following two procedures:
The MS instrument was set to positive polarity, 2 GHz resolution, and low mass (1700) mode and allowed to equilibrate for 30 minutes. The instrument was then calibrated, switched to acquisition mode and the appropriate method loaded.
After another 30 minute equilibration time, a blank batch (i.e., buffer) was run to ensure equipment is operating properly. The samples were thawed at 37° C. for 10 minutes, briefly centrifuged, and transfered to the bench top. Wells A1 and H12 were spiked with 1 μL 500 μM internal standard peptide, and the plates centrifuged at 2000×g for 5 minutes. The method was then run and masses of each individual well recorded.
The masses (for which integration data is desired) for each well were pasted into the platemap and exported from the analysis. Masses for the internal standards were exported as well. The data at 50 ppm was extracted for the +19 charge state, and identity of well A1 was assigned using the internal standard spike and integrated. Peak data was exported as a TOF list and the above steps were repeated individually, for the +20, +21, +22, +23, +24, and +25 charge states.
The masses and peak intensities of KRAS G12C protein species were measured using a Dionex RSLCnano system (Thermo Scientific) connected to a Q Exactive Plus mass spectrometer (Thermo Scientific).
20 μL of sample was loaded onto a Aeris™ 3.6 μm WIDEPORE C4 200 Å, LC Column 50×2.1 mm column maintained at 40° C. at a flow rate of 600 μL/min with 80% Solvent A (0.1% formic acid in H2O) and 20% Solvent B (0.1% formic acid in acetonitrile). The liquid chromatography conditions were 20% solvent B for 1 minute, 20% to 60% solvent B for 1.5 minutes, 60% to 90% solvent for 0.5 minute, 90% solvent B for 0.2 minute, 90% to 20% solvent B for 0.2 minute, and then equilibrated for 1.6 minute before the following sample injection. The flow rate was maintained at 600 μL/min throughout the sample analysis.
The mass spectrometer was operated in profile mode at a resolution of 17500, 5 microscans, using 50 msec max injection time and an AGC target of 1×10^6, and a full mass range from 800-1850 m/z was recorded. The intact protein mode was applied for optimal ion transfer and maximum sensitivity. The ionization method was electrospray ionization, which used a spray voltage of 4 kV, sheath gas flow set to 50 AU, auxiliary gas flow set to 10 AU and sweep gas flow set to 1 AU. […]
`C=CC(=O)N1CC2(CCN(c3ccc(F)c(-c4c(C)ccc5[nH]ncc45)c3C#N)CC2)C1` (atropisomer, axis not shown) [Compound I-140, (R)-6-(2-acryloyl-2,7-diazaspiro[3.5]nonan-7-yl)-3-fluoro-2-(5-methyl-1H-indazol-4-yl)benzonitrile]: the Bind % entry was “+ (+ indicates binding activity greater than 0% and up to 50%)”. Still for that read-out and setting: the same measure for `C=CC(=O)N1CC2(CCN(c3ccc(F)c(-c4c(C)ccc5[nH]ncc45)c3C#N)CC2)C1` (atropisomer, axis not shown) [Compound I-141, (S)-6-(2-acryloyl-2,7-diazaspiro[3.5]nonan-7-yl)-3-fluoro-2-(5-methyl-1H-indazol-4-yl)benzonitrile]: “+ (+ indicates binding activity greater than 0% and up to 50%)”; for `C=CC(=O)N1CC2(CCN(c3cccc(-c4c(C)ccc5[nH]ncc45)c3C#N)C2)C1` [Compound I-1, 2-(2-acryloyl-2,6-diazaspiro[3.4]octan-6-yl)-6-(5-methyl-1H-indazol-4-yl)benzonitrile]: “+++ (+++ indicates binding activity greater than 75%)”. As for `C=CC(=O)N1CC2(CCN(c3cccc(-c4c(C)ccc5[nH]ncc45)c3OC)C2)C1` [Compound I-2, 1-(6-(2-methoxy-3-(5-methyl-1H-indazol-4-yl)phenyl)-2,6-diazaspiro[3.4]octan-2-yl)prop-2-en-1-one], the Bind % result was “+ (+ indicates binding activity greater than 0% and up to 50%)”. Turning to `C=CC(=O)N1CC2(CCN(c3cccc(-c4c(C)ccc5cnn(C)c45)c3F)C2)C1` [Compound I-3, 1-(6-(3-(1,6-dimethyl-1H-indazol-7-yl)-2-fluorophenyl)-2,6-diazaspiro[3.4]octan-2-yl)prop-2-en-1-one], the Bind % entry is “+ (+ indicates binding activity greater than 0% and up to 50%)”. On the same count and under the same terms, the same measure for `CC#CC(=O)N1CC2(CCN(c3cccc(-c4c(C)ccc5[nH]ncc45)c3C#N)C2)C1` [Compound I-4, 2-(2-(but-2-ynoyl)-2,6-diazaspiro[3.4]octan-6-yl)-6-(5-methyl-1H-indazol-4-yl)benzonitrile]: “+ (+ indicates binding activity greater than 0% and up to 50%)”.

As to `C=CC(=O)N1CC2(CCN(c3cccc(-c4c(C)ccc5cnn(C)c45)c3OC)C2)C1` [Compound I-5, 1-(6-(3-(1,6-dimethyl-1H-indazol-7-yl)-2-methoxyphenyl)-2,6-diazaspiro[3.4]octan-2-yl)prop-2-en-1-one], the Bind % result is on record as “++ (++ indicates binding activity from 50 to 75%)”. As for `C=CC(=O)N1CCC2(CCN(c3cccc(-c4c(O)cccc4F)c3C#N)C2)C1` (centres unmarked) [Compound I-6, 3-(7-acryloyl-2,7-diazaspiro[4.4]nonan-2-yl)-2′-fluoro-6′-hydroxy-[1,1′-biphenyl]-2-carbonitrile], the Bind % result was “+ (+ indicates binding activity greater than 0% and up to 50%)”. Regarding `C=CC(=O)N1CC2(CCN(c3cc(N4CCOCC4)cc(-c4c(C)ccc5[nH]ncc45)c3C#N)C2)C1` [Compound I-7, 2-(2-acryloyl-2,6-diazaspiro[3.4]octan-6-yl)-6-(5-methyl-1H-indazol-4-yl)-4-morpholino-benzonitrile], the Bind % result was “+++ (+++ indicates binding activity greater than 75%)”. `C=CC(=O)N1CC2(CCN(c3cccc(-c4c(C)ccc5[nH]ncc45)c3F)C2)C1` [Compound I-8, 1-(6-(2-fluoro-3-(5-methyl-1H-indazol-4-yl)phenyl)-2,6-diazaspiro[3.4]octan-2-yl)prop-2-en-1-one]: the Bind % entry is “+ (+ indicates binding activity greater than 0% and up to 50%)”. On to `C=CC(=O)N1CCC2(C1)CN(c1cccc(-c3c(C)ccc4[nH]ncc34)c1C#N)C2` [Compound I-9, 2-(6-acryloyl-2,6-diazaspiro[3.4]octan-2-yl)-6-(5-methyl-1H-indazol-4-yl)benzonitrile], for which the Bind % entry was “+ (+ indicates binding activity greater than 0% and up to 50%)”.

In the case of `C=CC(=O)N1CCC2(C1)CN(c1cccc(-c3c(O)cccc3F)c1C#N)C2` [Compound I-10, 3-(6-acryloyl-2,6-diazaspiro[3.4]octan-2-yl)-2′-fluoro-6′-hydroxy-[1,1′-biphenyl]-2-carbonitrile], the Bind % entry was “+ (+ indicates binding activity greater than 0% and up to 50%)”. Same read-out and setting: the same measure for `C=CC(=O)N1CCC2(C1)CN(c1cccc(-c3c(C)ccc4cnn(C)c34)c1C#N)C2` [Compound I-11, 2-(6-acryloyl-2,6-diazaspiro[3.4]octan-2-yl)-6-(1,6-dimethyl-1H-indazol-7-yl)benzonitrile]: “+ (+ indicates binding activity greater than 0% and up to 50%)”; for `CC#CC(=O)N1CC2(CCN(c3cccc(-c4c(C)ccc5cnn(C)c45)c3C#N)C2)C1` [Compound I-12, 2-(2-(but-2-ynoyl)-2,6-diazaspiro[3.4]octan-6-yl)-6-(1,6-dimethyl-1H-indazol-7-yl)benzonitrile]: “+ (+ indicates binding activity greater than 0% and up to 50%)”. For `C=CC(=O)N1CCC2(CCN(c3cccc(-c4c(C)ccc5cnn(C)c45)c3C#N)C2)C1` (centres unmarked) [Compound I-13, 2-(7-acryloyl-2,7-diazaspiro[4.4]nonan-2-yl)-6-(1,6-dimethyl-1H-indazol-7-yl)benzonitrile], the Bind % result is “+ (+ indicates binding activity greater than 0% and up to 50%)”. On to `C=CC(=O)N1CC2(CCN(c3cc(OC)cc(-c4c(C)ccc5[nH]ncc45)c3C#N)C2)C1` [Compound I-14, 2-(2-acryloyl-2,6-diazaspiro[3.4]octan-6-yl)-4-methoxy-6-(5-methyl-1H-indazol-4-yl)benzonitrile], for which the Bind % entry is reported as “+++ (+++ indicates binding activity greater than 75%)”. For the compound `C=CC(=O)N1CCC2(CC1)CN(c1cccc(-c3c(C)ccc4cnn(C)c34)c1C#N)C2` [Compound I-15, 2-(7-acryloyl-2,7-diazaspiro[3.5]nonan-2-yl)-6-(1,6-dimethyl-1H-indazol-7-yl)benzonitrile], the Bind % entry was “+ (+ indicates binding activity greater than 0% and up to 50%)”.

Staying with this assay, now noted: tested at a concentration of 8 μM.
Regarding `C=CC(=O)N1CC2(CCN(c3ccc(F)c(-c4c(C)ccc5[nH]ncc45)c3C#N)C2)C1` (atropisomer, axis not shown) [Compound I-43, (R)-6-(2-acryloyl-2,6-diazaspiro[3.4]octan-6-yl)-3-fluoro-2-(5-methyl-1H-indazol-4-yl)benzonitrile], the Bind % result is listed as “+++ (+++ indicates binding activity greater than 75%)”. As for `C=CC(=O)N1CC2(CCN(c3ccc(F)c(-c4c(C)ccc5cnn(C)c45)c3C#N)C2)C1` (atropisomer, axis not shown) [Compound I-44, (S)-6-(2-acryloyl-2,6-diazaspiro[3.4]octan-6-yl)-2-(1,6-dimethyl-1H-indazol-7-yl)-3-fluorobenzo-nitrile], the Bind % result is recorded as “+++ (+++ indicates binding activity greater than 75%)”. Turning to `C=CC(=O)N1CC2(CCN(c3ccc(F)c(-c4c(C)ccc5cnn(C)c45)c3C#N)C2)C1` (atropisomer, axis not shown) [Compound I-45, (R)-6-(2-acryloyl-2,6-diazaspiro[3.4]octan-6-yl)-2-(1,6-dimethyl-1H-indazol-7-yl)-3-fluorobenzo-nitrile], the Bind % entry is “+ (+ indicates binding activity greater than 0% and up to 50%)”.

(Values after patent US20210380595A1 (ARAXES PHARMA LLC, priority 2018, published 2021).)
